Biological target: T1, recombinant human pancreatic GLK (Homo sapiens, UniProt P35557)
T1 sequence (P35557 1-465): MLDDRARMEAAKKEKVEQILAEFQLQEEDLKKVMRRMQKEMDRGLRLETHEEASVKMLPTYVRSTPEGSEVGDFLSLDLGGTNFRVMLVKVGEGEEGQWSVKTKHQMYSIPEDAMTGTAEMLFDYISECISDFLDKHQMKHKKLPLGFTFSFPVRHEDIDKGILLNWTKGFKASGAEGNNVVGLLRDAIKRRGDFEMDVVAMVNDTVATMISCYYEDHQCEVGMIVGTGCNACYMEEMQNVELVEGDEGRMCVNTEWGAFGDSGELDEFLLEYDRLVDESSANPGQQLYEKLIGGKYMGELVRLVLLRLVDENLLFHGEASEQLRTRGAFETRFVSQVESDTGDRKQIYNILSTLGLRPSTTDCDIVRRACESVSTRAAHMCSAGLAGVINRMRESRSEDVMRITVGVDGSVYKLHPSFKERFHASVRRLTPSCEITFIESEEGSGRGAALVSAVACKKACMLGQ
Test: biochemical

For `Cc1ccc(NC(=O)[C@H](Oc2ncnc3c2cnn3-c2ccccc2Cl)C(C)C)nc1` [Example 85, (2R)-2-(1-(2-chlorophenyl)-1H-pyrazolo[3,4-d]pyrimidin-4-yloxy)-3-methyl-N-(5-methylpyridin-2-yl)butanamide], the EC50 was 9500 nM.
In the case of `Cc1ccc(NC(=O)[C@H](COCCO)Oc2ncnc3c2cnn3-c2cc(C#N)ccc2C)nc1` [Example 184, (2S)-2-(1-(5-cyano-2-methylphenyl)-1H-pyrazolo[3,4-d]pyrimidin-4-yloxy)-3-(2-hydroxyethoxy)-N-(5-methylpyridin-2-yl)propanamide], the EC50 is reported as 1500 nM.
For `CCOC[C@H](Oc1ncnc2c1cnn2-c1ccncc1C)C(=O)Nc1ccc(Cl)cn1` [Example 128, (2S)—N-(5-Chloropyridin-2-yl)-3-ethoxy-2-[1-(3-methylpyridin-4-yl)pyrazolo[4,5-e]pyrimidin-4-yl]oxypropanamide], the EC50 was 920 nM.
`Cc1ccc(NC(=O)[C@H](COC(C)C)Oc2ncnc3c2cnn3-c2ncccc2Cl)nc1` [Example 91, (2S)-2-(1-(3-chloropyridin-2-yl)-1H-pyrazolo[3,4-d]pyrimidin-4-yloxy)-3-isopropoxy-N-(5-methylpyridin-2-yl)propanamide] was tested, and the EC50 was 160 nM.
For `N#Cc1ccc(NC(=O)[C@H](COCCO)Oc2ncnc3c2cnn3-c2ncccc2Cl)nc1` [Example 162, (2S)-2-(1-(3-chloropyridin-2-yl)-1H-pyrazolo[3,4-d]pyrimidin-4-yloxy)-N-(5-cyanopyridin-2-yl)-3-(2-hydroxyethoxy)propanamide], the EC50 was 1500 nM.
With `CCOC[C@H](Oc1ncnc2c1cnn2-c1ncccc1C(F)(F)F)C(=O)Nc1ccc(Cl)cn1` [Example 134, (2S)—N-(5-chloropyridin-2-yl)-3-ethoxy-2-[1-[3-(trifluoromethyl)pyridin-2-yl]pyrazolo[4,5-e]pyrimidin-4-yl]oxypropanamide] the EC50 was 440 nM.
Compound `Cc1cnc(NC(=O)[C@H](COC2CCC2)Oc2ncnc3c2cnn3-c2cccnc2C)cn1` [Example 149, (2S)-3-cyclobutoxy-N-(5-methylpyrazin-2-yl)-2-(1-(2-methylpyridin-3-yl)-1H-pyrazolo[3,4-d]pyrimidin-4-yloxy)propanamide] has an EC50 of 660 nM.
For `COC[C@@H](Oc1ncnc2c1cnn2-c1ccccc1Cl)C(=O)Nc1ccc(C)cn1` [Example 2, (R)-2-{[1-(2-chlorophenyl)-1H-pyrazolo[3,4-d]pyrimidin-4-yl]oxy}-3-methoxy-N-(5-methylpyridin-2-yl)propanamide], the EC50 was no less than 100000 nM.
`C[C@H](CO)OC[C@H](Oc1ncnc2c1cnn2-c1c(Cl)cccc1C#N)C(=O)Nc1ccc(Cl)cn1` [Example 216, (2S)-2-[1-(2-chloro-6-cyano-phenyl)pyrazolo[4,5-e]pyrimidin-4-yl]oxy-N-(5-chloro-2-pyridyl)-3-[(1R)-2-hydroxy-1-methyl-ethoxy]propanamide] was tested, and the EC50 was 163 nM.
Compound `CC(C)OC[C@H](Oc1ncnc2c1cnn2-c1ncccc1Cl)C(=O)Nc1ccc(S(C)(=O)=O)cn1` [Example 177, (2S)-2-(1-(3-chloropyridin-2-yl)-1H-pyrazolo[3,4-d]pyrimidin-4-yloxy)-3-isopropoxy-N-(5-(methylsulfonyl)pyridin-2-yl)propanamide] has an EC50 of 1500 nM.
With `CC[C@@H](Oc1ncnc2c1cnn2-c1ccccc1OC)C(=O)Nc1ccc(C)cn1` [Example 43, (2R)-2-{[1-(2-Methoxyphenyl)-1H-pyrazolo[3,4-d]pyrimidin-4-yl]oxy}-N-(5-methylpyridin-2-yl)butanamide] the EC50 was 4200 nM.
For `CC(=O)NCC(Oc1ncnc2c1cnn2-c1ccccc1Cl)C(=O)Nc1nc(C)cs1` (stereo not shown) [Example 48, 3-Acetamido-2-{[1-(2-chlorophenyl)-1h-pyrazolo[3,4-d]pyrimidin-4-yl]oxy}-n-(4-methyl-1,3-thiazol-2-yl)propanamide], the EC50 was 11000 nM.
`CCOC(Sc1ncnc2c1cnn2-c1ccccc1OC)C(=O)Nc1nc(C)cs1` (stereo not shown) [Example 71, 2-Ethoxy-2-{[1-(2-methoxyphenyl)-1H-pyrazolo[3,4-d]pyrimidin-4-yl]thio}-N-(4-methyl-1,3-thiazol-2-yl)acetamide] gave an EC50 of 1600 nM.
Compound `CC(C)OCC(Oc1ncnc2c1cnn2-c1ccccc1Cl)C(=O)Nc1ccc(C#N)cn1` (stereo not shown) [Example 113, 2-[1-(2-chlorophenyl)pyrazolo[4,5-e]pyrimidin-4-yl]oxy-N-(5-cyano-2-pyridyl)-3-isopropoxy-propanamide] has an EC50 of 300 nM.
`N#Cc1ccc(NC(=O)[C@H](COCCO)Oc2ncnc3c2cnn3-c2c(Cl)cccc2Cl)nc1` [Example 235, (2S)—N-(5-cyano-2-pyridyl)-2-[1-(2,6-dichlorophenyl)pyrazolo[3,4-d]pyrimidin-4-yl]oxy-3-(2-hydroxyethoxy)propanamide] was tested, and the EC50 was 400 nM.
For `C[C@H](CO)OC[C@H](Oc1ncnc2c1cnn2-c1c(Cl)cccc1C#N)C(=O)Nc1ccccn1` [Example 231, (2S)-2-[1-(2-chloro-6-cyano-phenyl)pyrazolo[3,4-d]pyrimidin-4-yl]oxy-3-[(1R)-2-hydroxy-1-methyl-ethoxy]-N-(2-pyridyl)propanamide], the EC50 was 260 nM.
For `COCCC(Oc1ncnc2c1cnn2-c1ccccc1C)C(=O)Nc1ccc(C)cn1` (stereo not shown) [Example 16, 4-methoxy-2-{[1-(2-methylphenyl)-1H-pyrazolo[3,4-d]pyrimidin-4-yl]oxy}-N-(5-methylpyridin-2-yl)butanamide], the EC50 was 290 nM.
For `CCOC[C@H](Oc1ncnc2c1cnn2-c1cccc(Cl)c1Cl)C(=O)Nc1ccc(C#N)cn1` [Example 214, (2S)—N-(5-cyanopyridin-2-yl)-2-(1-(2,3-dichlorophenyl)-1H-pyrazolo[3,4-d]pyrimidin-4-yloxy)-3-ethoxypropanamide], the EC50 was 320 nM.
In the case of `N#Cc1cccc(Cl)c1-n1ncc2c(O[C@@H](COCCO)C(=O)Nc3ccccn3)ncnc21` [Example 238, (2S)-2-[1-(2-chloro-6-cyano-phenyl)pyrazolo[3,4-d]pyrimidin-4-yl]oxy-3-(2-hydroxyethoxy)-N-(2-pyridyl)propanamide], the EC50 is reported as 420 nM.
`Cc1c(Cl)cccc1-n1ncc2c(O[C@@H](COCCO)C(=O)Nc3ccc(Cl)cn3)ncnc21` [Example 173, (2S)-2-[1-(3-chloro-2-methylphenyl)pyrazolo[4,5-e]pyrimidin-4-yl]oxy-N-(5-chloropyridin-2-yl)-3-(2-hydroxyethoxy)propanamide] showed an EC50 of 920 nM.
Work on `CC(C)OC[C@H](Oc1ncnc2c1cnn2-c1ccccc1Cl)C(=O)Nc1ccc(C#N)cn1` [Example 113a, (2S)-2-[1-(2-chlorophenyl)pyrazolo[4,5-e]pyrimidin-4-yl]oxy-N-(5-cyano-2-pyridyl)-3-isopropoxy-propanamide] yielded an EC50 of 300 nM.
Compound `Cc1ccc(NC(=O)[C@H](COC(C)C)Oc2ncnc3c2cnn3-c2ncccc2Cl)nn1` [Example 127, (2S)-2-[1-(3-chloro-2-pyridyl)pyrazolo[4,5-e]pyrimidin-4-yl]oxy-3-isopropoxy-N-(6-methylpyridazin-3-yl)propanamide] has an EC50 of 6000 nM.
For `N#Cc1ccc(NC(=O)[C@H](COCCO)Oc2ncnc3c2cnn3-c2ccccc2Cl)nc1` [Example 172, (2S)-2-[1-(2-chlorophenyl)pyrazolo[4,5-e]pyrimidin-4-yl]oxy-N-(5-cyanopyridin-2-yl)-3-(2-hydroxyethoxy)propanamide], the EC50 was 810 nM.
Compound `COCC[C@@H](Oc1ncnc2c1cnn2-c1ccccc1C)C(=O)Nc1ccc(C)cn1` [Example 18, (R)-4-methoxy-2-{[1-(2-methylphenyl)-1H-pyrazolo[3,4-d]pyrimidin-4-yl]oxy}-N-(5-methylpyridin-2-yl)butanamide] has an EC50 of 32000 nM.
In the case of `CCOC[C@H](Oc1ncnc2c1cnn2-c1cccnc1C)C(=O)Nc1ccc(Cl)cn1` [Example 150, (2S)—N-(5-chloropyridin-2-yl)-3-ethoxy-2-(1-(2-methylpyridin-3-yl)-1H-pyrazolo[3,4-d]pyrimidin-4-yloxy)propanamide], the EC50 is reported as 1000 nM.
With `N#Cc1cccc(Cl)c1-n1ncc2c(O[C@@H](COCCO)C(=O)Nc3ccc(F)cn3)ncnc21` [Example 237, (2S)-2-[1-(2-chloro-6-cyano-phenyl)pyrazolo[3,4-d]pyrimidin-4-yl]oxy-N-(5-fluoro-2-pyridyl)-3-(2-hydroxyethoxy)propanamide] the EC50 was 470 nM.
`COCCOCCC(Sc1ncnc2c1cnn2-c1ccccc1Cl)C(=O)Nc1nc(C)cs1` (stereo not shown) [Example 52, 2-{[1-(2-chlorophenyl)-1H-pyrazolo[3,4-d]pyrimidin-4-yl]thio}-4-(2-methoxyethoxy)-N-(4-methyl-1,3-thiazol-2-yl)butanamide] was tested, and the EC50 was 2900 nM.
`N#Cc1ccc(NC(=O)[C@H](CN2CC(O)C2)Oc2ncnc3c2cnn3-c2ccccc2Cl)nc1` [Example 223, (2S)-2-[1-(2-chlorophenyl)pyrazolo[3,4-d]pyrimidin-4-yl]oxy-N-(5-cyano-2-pyridyl)-3-(3-hydroxyazetidin-1-yl)propanamide] was tested, and the EC50 was 310 nM.
Compound `COc1ccccc1-n1ncc2c(O[C@H](C)C(=O)Nc3ccc(C)cn3)ncnc21` [(R)-2-[1-(2-methoxyphenyl)pyrazolo[4,5-e]pyrimidin-4-yl]oxy-N-(5-methyl-2-pyridyl)propanamide] has an EC50 greater than 100000 nM.
`CCCCCCC(Sc1ncnc2c1cnn2-c1ccccc1Cl)C(=O)Nc1ccc(C)cn1` (stereo not shown) [2-[1-(2-chlorophenyl)pyrazolo[4,5-e]pyrimidin-4-yl]sulfanyl-N-(5-methyl-2-pyridyl)octanamide] was tested, and the EC50 was greater than 100000 nM.
`C[C@H](CO)OC[C@H](Oc1ncnc2c1cnn2-c1ccccc1Cl)C(=O)Nc1ccccn1` [Example 200, (2S)-2-(1-(2-chlorophenyl)-1H-pyrazolo[3,4-d]pyrimidin-4-yloxy)-3-((R)-1-hydroxypropan-2-yloxy)-N-(pyridin-2-yl)propanamide] was tested, and the EC50 was 440 nM.
